Source: ChEMBL document CHEMBL1136738, “Design, synthesis, and pharmacological profile of novel fused pyrazolo[4,3-d]pyridine and pyrazolo[3,4-b][1,8]naphthyridine isosteres: a new class of potent and selective acetylcholinesterase inhibitors” (J Med Chem, 2003)

Tests used:
[1] = target: T1, Acetylcholinesterase (Rattus norvegicus, UniProt P37136); assay: Inhibitory activity against rat brain total Acetylcholinesterase (AChE) was determined using Ellman's method
T1 sequence (P37136 whole entry): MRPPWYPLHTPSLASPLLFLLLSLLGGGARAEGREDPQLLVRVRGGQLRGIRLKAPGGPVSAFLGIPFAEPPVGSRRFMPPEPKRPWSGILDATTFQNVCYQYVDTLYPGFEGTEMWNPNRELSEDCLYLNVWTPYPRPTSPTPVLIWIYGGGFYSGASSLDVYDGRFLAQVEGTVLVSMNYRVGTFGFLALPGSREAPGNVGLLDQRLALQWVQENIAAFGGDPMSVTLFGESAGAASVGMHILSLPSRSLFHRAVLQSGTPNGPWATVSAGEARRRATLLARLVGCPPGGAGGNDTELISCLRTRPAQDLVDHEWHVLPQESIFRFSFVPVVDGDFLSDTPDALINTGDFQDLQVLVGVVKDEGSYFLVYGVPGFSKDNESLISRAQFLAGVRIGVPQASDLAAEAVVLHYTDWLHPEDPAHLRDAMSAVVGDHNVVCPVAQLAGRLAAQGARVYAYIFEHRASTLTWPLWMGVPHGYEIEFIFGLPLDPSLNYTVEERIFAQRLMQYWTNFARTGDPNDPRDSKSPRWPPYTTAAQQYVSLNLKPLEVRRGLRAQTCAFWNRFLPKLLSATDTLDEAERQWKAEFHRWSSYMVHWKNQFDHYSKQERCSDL

[2] = target: Butyrylcholinesterase (Rattus norvegicus, UniProt Q9JKC1)
Sequence of Butyrylcholinesterase (Q9JKC1 whole entry): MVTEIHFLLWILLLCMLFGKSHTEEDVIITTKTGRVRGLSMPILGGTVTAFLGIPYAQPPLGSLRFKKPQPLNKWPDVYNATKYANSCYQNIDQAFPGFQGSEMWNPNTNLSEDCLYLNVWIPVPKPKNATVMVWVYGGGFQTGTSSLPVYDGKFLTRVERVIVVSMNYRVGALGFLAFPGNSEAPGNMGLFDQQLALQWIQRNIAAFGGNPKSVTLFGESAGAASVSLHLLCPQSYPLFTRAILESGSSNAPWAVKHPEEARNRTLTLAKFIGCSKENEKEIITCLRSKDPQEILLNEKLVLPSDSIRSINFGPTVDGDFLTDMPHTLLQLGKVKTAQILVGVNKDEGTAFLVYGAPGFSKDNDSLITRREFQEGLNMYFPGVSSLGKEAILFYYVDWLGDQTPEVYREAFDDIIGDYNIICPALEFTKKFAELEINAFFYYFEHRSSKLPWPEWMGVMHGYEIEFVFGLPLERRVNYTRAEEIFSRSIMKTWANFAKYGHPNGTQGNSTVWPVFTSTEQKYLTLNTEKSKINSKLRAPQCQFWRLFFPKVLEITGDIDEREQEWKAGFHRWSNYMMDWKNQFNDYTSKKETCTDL
Description: Inhibitory concentration against rat brain butyrylcholinesterase (BuChE) was determined using Ellman's method

Cc1nn(-c2ccccc2)c2c(N)c3c(nc12)CCC3 gave an IC50 [1] of 32.2 µM.

With Cc1nn(-c2ccccc2)c2nc3c(c(N)c12)CCCC3 the IC50 [1] was 28.5 µM.

With COc1ccc2c3c1C[C@H]1C[C@@H](O)C=C[C@]31CCN(C)C2 the IC50 [1] was 3.1 µM.

Cc1nn(-c2ccccc2)c2nc3nc4c(c(N)c3cc12)CCCC4 showed an IC50 [1] of 6.39 µM and an IC50 [2] of 134 µM.

Cc1nn(-c2ccccc2)c2c(N)c3c(nc12)CCCC3 showed an IC50 [1] of 26.7 µM.

For Nc1c2c(nc3nn(-c4ccccc4)cc13)CCCC2, the IC50 [1] was 6.01 µM and the IC50 [2] was 31.9 µM.

Work on Cc1nn(-c2ccccc2)c2nc3c(c(N)c12)CCC3 yielded an IC50 [1] of 31.2 µM.

Cc1nn(-c2ccccc2)c2nc3nc4c(c(N)c3cc12)CCC4 showed an IC50 [1] of 23.2 µM.
